Results: patent US10888547B2, “Amorphous and a crystalline form of genz 112638 hemitartrate as inhibitor of glucosylceramide synthase” (Genzyme Corporation, priority 2009, dated 2021)

What was measured:
Fabry-Rag mice = experiment: Combination ERT/SRT therapy of Fabry-Rag mice; type: in vivo, mouse; details: ERT 1 mg/kg α-galactosidase A i.v., SRT 300 mg/kg daily in diet
Experimental: For the combination therapy studies, Fabry-Rag mice were put on study at 3 months old (treatment model). Mice in group A received intravenous injections of recombinant human alpha-galactosidase A (Genzyme Corp.) at a dose of 1 mg/kg every 2 months (i.e. 3, 5, 7 and 9 months old). Group B received the same intravenous enzyme doses plus it received Formula (I) Hemitartrate (Genzyme Corp., Cambridge, Mass.) as a component of the pellet food diet. The drug was formulated at 0.15% (w/w) in standard 5053 mouse chow (TestDiet, Richmond, Ind.) and provided ad libitum. […] Group C received enzyme injections every 4 months (i.e. 3 and 7 months old) and was on the same drug-in-food diet as group B. Group D received only the drug-in-food diet (same as groups B and C). Group E was untreated Fabry-Rag mice and group F were wild-type controls.
Quantitation of GL-3 was by Tandem Mass Spectrometry essentially as for GL-1.
Hot plate Assay was performed as described previously (Ziegler, R J et al. Molec. Ther. 15(3), 492-500 (2007).
Beginning at three-months of age, the mice were subjected to a schedule of behavioral tests (i.e. hot-plate assay) and biochemical tests (i.e., GL-3 level analysis in tissues/blood/urine), as shown in FIG. 10.

maltase = experiment: Intestinal glycosidase assay in rat tissue homogenates; type: biochemical
Experimental: The specificity of Formula (I) Hemitartrate was evaluated in a series of in vitro cell-based and cell-free assays. The intestinal glycosidase enzymes were assayed in rat tissue homogenates (see U. Andersson, et al., Biochem. Pharm. 59 (2000) 821-829, the entire teachings of which are incorporated herein by reference), and the glycogen debranching enzyme was assayed in a cell free assay as described (see U. Andersson, et al., Biochem. Pharm. 67 (2004) 697-705, the entire teachings of which are incorporated herein by reference).

[1] = test system: Gaucher mice (D409V/null); experiment: Separate and sequential enzyme and substrate reduction therapy in Gaucher mice; type: in vivo, mouse
Source text: Procedures involving animals were reviewed and approved by the Institutional Animal Care and Use Committee (IACUC) at Genzyme Corporation following the guidelines issued by the Association for Assessment and Accreditation of Laboratory Animal Care (AAALAC). […] The study had 6 groups of mice with group A being sacrificed after 2 weeks to provide baseline levels of tissue glucosylceramide. Groups B, C, and D all received recombinant human glucocerebrosidase (Genzyme Corp., Cambridge, Mass.) (10 mg/kg) intravenously via a tail-vein (100 μL) every 2 days for a total of 8 injections. Group B was sacrificed at the end of this regimen (at the same time as group A) to provide enzyme-reduced levels of tissue glucosylceramide. Groups D and E were both fed Formula (I) Hemitartrate (Genzyme Corp., Cambridge, Mass.) as a component of the pellet food diet. The drug was formulated at 0.075% (w/w) in standard 5053 mouse chow (TestDiet, Richmond, Ind.) and provided ad libitum. […] Group F received no treatment and was sacrificed along with groups C, D and E 12 weeks after the start of the study. Food consumption and mouse weights were monitored three times per week to determine drug intake and the potential impact of the drug on overall health. Animals were killed by carbon dioxide inhalation and their tissues harvested immediately. Half of each tissue was snap frozen on dry ice and stored at −80° C. until ready for further processing. The other half was processed for histological analysis.
Glucosylceramide levels were quantified by mass spectrometry as described previously (see K. McEachern, et al., J. Gene. Med. 8 (2006) 719-729; T. Doering, J. Biol. Chem. 274 (1999) 11038-11045, the entire teachings of both are incorporated herein by reference). A known mass of tissue was homogenized in 2:1 (v/v) chloroform:methanol and incubated at 37° C. for 15 min. Samples were centrifuged and the supernatants were extracted with 0.2 volumes of water overnight at 4° C. The samples were centrifuged, the aqueous phase was discarded, and the organic phase was dried down to a film under nitrogen. For electrospray ionization mass spectrometry (ESI/MS) analysis, tissue samples were reconstituted to the equivalent of […] original tissue weight in 1 ml chloroform:methanol (2:1, v/v) and vortexed for 5 min. Aliquots (40 μL) of each sample were delivered to Waters total recovery vials and 50 μL of a 10 μg/mL d3-C16-GL-1 internal standard (Matreya, Inc., Pleasant Gap, Pa.) was added. Samples were dried under nitrogen and reconstituted with 200 μL of 1:4 (v/v) DMSO:methanol. ESI/MS analysis of glucosylceramides of different carbon chain lengths was performed on a Waters alliance HPLC (Separation Module 2695) coupled to a Micromass Quattro Micro system equipped with an electrospray ion source. Lipid extract samples (20 μL) were injected onto a C8 column ([…] i.d; Phenomenex, Torrance, Calif.) at 45° C. and eluted with a gradient of 50 to 100% acetonitrile (2 mM ammonium acetate, 0.1% formic acid) at 0.5 mL/min. The first 0.5 min. was held at 50% organic and then quickly switched to 100% for the final 3.5 min. The source temperature was held constant at 150° C. and nitrogen was used as the desolvation gas at a flow rate of 670 L/h. The capillary voltage was maintained at 3.80 KV with a cone voltage of 23 V, while the dwell time for each ion species was 100 ms. Spectra were acquired by the MRM mode to monitor eight dominant isoforms (C16:0, C18:0, C20:0, C22:1, C22:0, C22:1-OH, C24:1, and C24:0). Quantitation of glucosylceramide was based on the sum of these eight isoforms relative to the internal standard, with a calibration curve ranging from 0.1 to 10 μg/mL.
For histological analysis, tissues were fixed in zinc formalin (Electron Microscopy Sciences, Hatfield, Pa.) at room temperature for 24 h, then stored in PBS at 4° C. until ready for further processing. […]

[2] = group D: 2 weeks enzyme, then 150 mg/kg/day in food for 10 weeks
[3] = group E: 150 mg/kg/day in food alone for 12 weeks

CCCCCCCC(=O)N[C@H](CN1CCCC1)[C@H](O)c1ccc2c(c1)OCCO2 [Formula (I) Hemitartrate]
onset of heat-insensitivity (Fabry-Rag mice): delays onset
urine GL-3 levels (Fabry-Rag mice): reduces
blood GL-3 levels (Fabry-Rag mice; from 3 months of age): does not
inhibition of maltase (maltase; concentrations up to 2500 μM): No detectable inhibition
Ki (maltase; read-out: Enzyme specificities, Ki: Maltase inhibition): > 10 µM
liver histopathology, CD68-positive Gaucher cells ([1]; 2 weeks enzyme, then substrate reduction therapy for 10 weeks): increase in Gaucher cells was negated
weight gain versus regular chow ([1]; chow containing 150 mg/kg/day): no discernible differences in weight gain
liver histopathology, CD68-positive Gaucher cells ([1]; drug alone for 12 weeks): reduced accumulation of the substrate
lung GL1 levels versus untreated controls (F) ([1]; group D: 2 weeks enzyme, then 150 mg/kg/day in chow for 10 weeks): significantly lower
liver GL1 levels versus untreated controls (F) [1, 2]: significantly lower
splenic GL1 levels versus untreated control (F) [1, 2]: significantly lower
liver GL-1 levels versus untreated, age-matched controls (F) [1, 3]: the difference was not significant
pulmonary GL1 levels versus untreated controls (F) [1, 3]: effective in lowering pulmonary GL1 levels
splenic GL1 levels versus untreated controls (F) [1, 3]: the difference was not significant
